From US20200390101A1, “MICROBICIDAL COMPOSITION” (DOW GLOBAL TECHNOLOGIES LLC, priority 2017, published 2020)

Test system: anaerobic sulfate-reducing bacteria
Test: Sulfide control efficacy against anaerobic sulfate-reducing bacteria (colorimetric sulfide measurement after 2 days at 35° C.)
Format: cell-based
Conditions: for Sulfide (ppm): sulfide level at the listed THPS/nitrate concentrations after 2 days at 35° C.
Procedure: Inside an anaerobic chamber (Bactron anaerobic chamber), a deoxygenated sterile salt solution (3.12 g of NaCl, 0.13 g of NaHCO3, 0.17 g of Na2SO4, 47.70 mg of KC1, 72.00 mg of CaCl2, 54.49 mg of MgSO4, 43.92 mg of Na2CO3 in 1 L water and then enriched with 5% of ATCC 1249 Modified Baar's Medium) was inoculated with a sulfate-reducing bacteria which has a high similarity in 16S rRNA gene sequence with Desulfovibrio alaskensis and Desulfovibrio vietnamensis, at a final bacterial concentrations of 10^7 CFU/mL. […] After the mixtures were incubated at 35° C. for 2 days, sulfide level in all treatments including non THPS and or nitrate controls were measured using a colorimetric method described by D. Andrew et. al in “Standard Methods for the Examination of Water and Wastewater 4500-S2-”, with a scaled down sample size (250 μl) and reagents (scaled down accordingly) to allow the analysis to be done in 96-well micro-titer plates. Final results were read using a 96-well plate reader (TECAN Sunrise) at wavelength of 580 nm.
SI is calculated as follows:
Ca/CA+Cb/CB=Synergy Index (“SI”)

Molecule | Active ppm concentration required to control sulfide below 10 ppm, THPS (THPS component, 10^7 CFU/mL, 35° C., 2 days, anaerobic) [ppm] | Sulfide (ppm) | Active ppm concentration required to control sulfide below 10 ppm, Nitrate (nitrate component (sodium nitrate), 10^7 CFU/mL, 35° C., 2 days, anaerobic) [ppm]
tetrakis(hydroxymethyl) phosphonium sulfate [THPS:Nitrate 1:0] | 12.50 | 2.48 | 
O=[N+]([O-])[O-].[Na+] [THPS:Nitrate 0:1, sodium nitrate] |  | 74.26 | >800
